Results on 31 molecules are retold here after the supplement of paper PMC11616607.

SMILES strings stand for the structures.

The first assay relates to CAOV3. Description: drug sensitivity score (DSS) from 5-point dose-response viability curve (DSS (area-under-curve based score)); higher = more sensitive (stronger growth inhibition or killing); extreme values may be limits of the assay. The following applies: exposure time: 72 h; concentration range: 5 concentrations over 10,000-fold range. In short, it runs like this:
(§1)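 For the drug sensitivity score, obtained per cell line and drug in Breeze software, larger values mean greater sensitivity. No response corresponds to a score of zero. Ovarian cancer and normal ovarian cells were seeded at 1,500 per well into 384-well plates already holding acoustically dispensed drugs (Echo 550, DMSO or water, five concentrations over a 10,000-fold range) and incubated 3 days at 37°C, 5% CO2. CellTiter-Glo luminescence on a PHERAstar FS gave the viability readout.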
Take `CCOc1ccn(-c2ccc(F)cc2)c(=O)c1C(=O)Nc1ccc(Oc2ccnc(N)c2Cl)c(F)c1`: the drug sensitivity score came to 0.

Consider `CCn1c(C(=O)N(C2CC2)C2CC2)cc2c3c(ncn3C)c(Nc3cc(C)n(C)n3)nc21`, for which the drug sensitivity score stood at 0.

For `C[C@@]1(C(=O)Nc2ccc(F)nc2)CCCN1c1nc(Nc2cc(C3CC3)n[nH]2)c2cccn2n1`, the drug sensitivity score is 20.2.

`Cc1c(-c2ccc(N3CCc4cccc(C(=O)Nc5nc6ccccc6s5)c4C3)nc2C(=O)O)cnn1CC12CC3CC(CC(C3)C1)C2` displayed a drug sensitivity score of 5.1.

As for `Cc1nn(C)c(COc2ccc(N3CCN(S(=O)(=O)N(C)C)CC3)cc2)c1-c1cccc2c(CCCOc3cccc4ccccc34)c(C(=O)O)n(CCN3CCOCC3)c12`, the drug sensitivity score was determined as 4.9.

For `O=c1[nH]c(C2CCCN2)nc2c1oc1ccc(Cl)cc12` (stereo unspecified), the drug sensitivity score was found to be 3.5.

`COc1ccc(C[C@H](NC(=O)[C@H](C)NC(=O)CN2CCOCC2)C(=O)N[C@@H](Cc2ccccc2)C(=O)C2(C)CO2)cc1` (stereo in doubt) [ONX-0914] returned a drug sensitivity score of 17.9.

`CC/C(=C(\c1ccc(O)cc1)c1ccc(OCCN(C)C)cc1)c1ccccc1` [4-hydroxytamoxifen] displayed a drug sensitivity score of 0.2.

Turning to `Nc1ncnc2c1nc(N)n2[C@@H]1O[C@H](CO)[C@@H](O)[C@H]1O` [8-amino-adenosine], the drug sensitivity score is 22.6.

With `Nc1ncnc2c1nc(Cl)n2[C@@H]1O[C@H](CO)[C@@H](O)[C@H]1O` [8-chloro-adenosine], the drug sensitivity score amounted to 11.2.

In turn, `COc1cc2c(cc1OCCCN1CCCC1)N=C(N)C21CCC1` [A-366] came in with a drug sensitivity score of 0.3.

Molecule `COc1ccc(S(=O)(=O)Nc2cccnc2Nc2ccc(O)cc2)cc1` [ABT-751] registered a drug sensitivity score of 14.9.

In turn, `C[C@H](Nc1ncnc2[nH]cnc12)c1cc2ccc(F)cc2nc1-c1ccccn1` [AMG319] had a drug sensitivity score of 0.

In turn, `COCCOc1cnc2ccn([C@H](C)c3nnc4c(F)cc(-c5cnn(C)c5)cn34)c(=O)c2c1` [AMG-337] registered a drug sensitivity score of 0.

As for `CC1CCC(n2c3cnccc3c3cnc(Nc4ccc5c(n4)CCN(C(=O)CO)C5)nc32)CC1` (stereo unspecified) [AMG-925], the drug sensitivity score was 0.

With `CC(C)[C@H](C(=O)Nc1ccc(C(=O)NO)cc1)c1ccccc1` [AR-42], the drug sensitivity score was 9.9.

The molecule `Cc1sc2c(c1C)C(c1ccc(Cl)cc1)=N[C@@H](CC(=O)Nc1ccc(OCCOCCOCCOCCNc3cccc4c3C(=O)N(C3CCC(=O)NC3=O)C4=O)cc1)c1nnc(C)n1-2` (stereo partly specified) [ARV-825] had a drug sensitivity score of 5.4.

`COc1cc(N2CCC(N3CCN(C)CC3)CC2)ccc1Nc1ncnc(Nc2ccccc2S(=O)(=O)C(C)C)n1` [ASP3026] came in with a drug sensitivity score of 6.6.

Regarding `O=C(NC1CCNCC1)c1n[nH]cc1NC(=O)c1c(Cl)cccc1Cl` [AT7519], the drug sensitivity score came out at 13.9.

`O=C(Nc1c[nH]nc1-c1nc2ccc(CN3CCOCC3)cc2[nH]1)NC1CC1` [AT9283] gave a drug sensitivity score of 16.9.

The molecule `CC[C@H](CC#N)OC(=O)N[C@@H](C)c1cccc(NC(=O)Nc2ccc(-c3cnco3)c(OC)c2)c1` [AVN944] registered a drug sensitivity score of 10.9.

Molecule `COc1cc(N2CCN(C)CC2)ccc1Nc1nccc(-c2cn(C)c3cnccc23)n1` [AZ191] registered a drug sensitivity score of 0.

`COc1cc(OC2CCN(C)CC2)ccc1Nc1ncc2c(n1)n(C1CCCC1)c(=O)n2C` [AZ 3146] came in with a drug sensitivity score of 3.6.

Consider `CN(C)CCCOc1ccc(-c2ccc3ncc4c(c3c2)n(C2CCOCC2)c(=O)n4C)cn1` [AZD0156], for which the drug sensitivity score came out at 1.2.

`N[C@@H]1CCCN(c2c(/C=C3\SC(=O)NC3=O)cccc2-c2ccccc2)C1` [AZD1208] yielded a drug sensitivity score of 0.

In the case of `Cc1cc(Nc2nc(N[C@@H](C)c3ncc(F)cn3)ncc2Cl)[nH]n1` [AZD1480], the drug sensitivity score amounted to 0.

In the case of `COc1cc2ncnc(Nc3cccc(Cl)c3F)c2cc1OC(=O)N1CCN(C)C[C@H]1C` [AZD3759], the drug sensitivity score stood at 3.5.

`Cc1[nH]nc(C(F)(F)F)c1Cc1sc2c(c1C(=O)N1C[C@](C)(O)CO1)c(=O)n(C)c(=O)n2C(C)C` [AZD3965] registered a drug sensitivity score of 0.

`COc1cc(CCc2cc(NC(=O)c3ccc(N4CC(C)NC(C)C4)cc3)n[nH]2)cc(OC)c1` (stereo unspecified) [AZD4547] had a drug sensitivity score of 0.

Molecule `CN(C)C(=O)c1ccc(S(=O)(=O)c2ccc(NC(=O)[C@@](C)(O)C(F)(F)F)c(Cl)c2)cc1` [AZD7545] returned a drug sensitivity score of 1.1.

For `NC(=O)Nc1cc(-c2cccc(F)c2)sc1C(=O)N[C@H]1CCCNC1` [AZD7762], the drug sensitivity score was 6.1.

Another assay deals with HOSE2C. Described as above. Particulars: exposure time: 72 h; concentration range: 5 concentrations over 10,000-fold range. Put shortly:
as §1
As to `CCOc1ccn(-c2ccc(F)cc2)c(=O)c1C(=O)Nc1ccc(Oc2ccnc(N)c2Cl)c(F)c1`, the drug sensitivity score turned out to be 0.

As to `CCn1c(C(=O)N(C2CC2)C2CC2)cc2c3c(ncn3C)c(Nc3cc(C)n(C)n3)nc21`, the drug sensitivity score was determined as 0.

As to `C[C@@]1(C(=O)Nc2ccc(F)nc2)CCCN1c1nc(Nc2cc(C3CC3)n[nH]2)c2cccn2n1`, the drug sensitivity score was determined as 18.7.

In turn, `Cc1c(-c2ccc(N3CCc4cccc(C(=O)Nc5nc6ccccc6s5)c4C3)nc2C(=O)O)cnn1CC12CC3CC(CC(C3)C1)C2` gave a drug sensitivity score of 5.8.

The molecule `Cc1nn(C)c(COc2ccc(N3CCN(S(=O)(=O)N(C)C)CC3)cc2)c1-c1cccc2c(CCCOc3cccc4ccccc34)c(C(=O)O)n(CCN3CCOCC3)c12` returned a drug sensitivity score of 13.7.

The molecule `O=c1[nH]c(C2CCCN2)nc2c1oc1ccc(Cl)cc12` (stereo unspecified) registered a drug sensitivity score of 0.9.

Consider `COc1ccc(C[C@H](NC(=O)[C@H](C)NC(=O)CN2CCOCC2)C(=O)N[C@@H](Cc2ccccc2)C(=O)C2(C)CO2)cc1` (stereo in doubt) [ONX-0914], for which the drug sensitivity score was 21.3.

In turn, `CC/C(=C(\c1ccc(O)cc1)c1ccc(OCCN(C)C)cc1)c1ccccc1` [4-hydroxytamoxifen] displayed a drug sensitivity score of 3.

`Nc1ncnc2c1nc(N)n2[C@@H]1O[C@H](CO)[C@@H](O)[C@H]1O` [8-amino-adenosine] displayed a drug sensitivity score of 4.9.

As for `Nc1ncnc2c1nc(Cl)n2[C@@H]1O[C@H](CO)[C@@H](O)[C@H]1O` [8-chloro-adenosine], the drug sensitivity score was found to be 3.5.

Molecule `COc1cc2c(cc1OCCCN1CCCC1)N=C(N)C21CCC1` [A-366] returned a drug sensitivity score of 0.

In turn, `COc1ccc(S(=O)(=O)Nc2cccnc2Nc2ccc(O)cc2)cc1` [ABT-751] showed a drug sensitivity score of 10.7.

In turn, `C[C@H](Nc1ncnc2[nH]cnc12)c1cc2ccc(F)cc2nc1-c1ccccn1` [AMG319] gave a drug sensitivity score of 0.

As for `COCCOc1cnc2ccn([C@H](C)c3nnc4c(F)cc(-c5cnn(C)c5)cn34)c(=O)c2c1` [AMG-337], the drug sensitivity score is 0.

In turn, `CC1CCC(n2c3cnccc3c3cnc(Nc4ccc5c(n4)CCN(C(=O)CO)C5)nc32)CC1` (stereo unspecified) [AMG-925] yielded a drug sensitivity score of 0.
